The source of these data is PMC11393453, “Phosphorylation of tau at a single residue inhibits binding to the E3 ubiquitin ligase, CHIP” (Nature Communications, 2024).

The subject of test [1] is endogenous CHIP. In words: Co-immunoprecipitation of endogenous CHIP with GFP-tau proteoforms. To be noted: Fig 3E. The format is cell-based. The method, then: (§1) Fig. 3 TauC3 Ser416 phosphorylation regulates CHIP-dependent tau homeostasis. A In vitro ubiquitination of tau proteoforms by CHIP. Samples were collected at the denoted timepoints, quenched in SDS-PAGE loading buffer, and analyzed by western blot. B Quantification of unmodified tau remaining following in vitro ubiquitination of varying tau proteoforms by CHIP. Unmodified tau remaining was analyzed by densitometry, normalized to 0-min time point, and curves were fit using one-phase exponential decay (n = 3 technical replicates). C Cartoon schematic depicting promoter architecture and varying C-terminal sequences for HEK293 FlpIn T-Rex cells expressing doxycycline inducible GFP-tau proteoforms. D Representative fluorescence micrographs for GFP-tau cells. Images show tau species associated with microtubules (green, false color), while nuclei are stained with Hoechst 33342 (blue, false color). Scale bar = 30 µm. Images are representative of three separate acquisitions. E Co-immunoprecipitation assay following IP of varying tau species from cells. Whole cell lysate (input) was used for loading controls, and co-immunoprecipitated CHIP was analyzed by western blot. Experiment was repeated in duplicate. F Representative western blot showing differing abundance of various tau proteoforms in HEK293 FlpIn T-Rex cells. Experiment was repeated in duplicate. G Quantification of tau protein abundance taken from three independent biological experiments. Tau:tubulin ratio was determined by densitometry and normalized to full-length tau. Error bars represent SD. Statistical significance was determined by one-way ANOVA with Tukey’s post hoc analysis. H Quantification of MAPT mRNA from three independent biological experiments. MAPT mRNA was normalized to GAPDH and shown relative to full-length tau. Error bars represent SD. Statistical significance was determined by one-way ANOVA with Tukey’s post hoc analysis.
Cells were washed once in 1X Dulbecco’s Phosphate Buffered Saline (D-PBS) and lysed in ice cold Pierce Immunoprecipitation (IP) lysis buffer (25 mM Tris-HCl pH 7.4, 150 mM NaCl, 1 mM EDTA, 1% NP-40). Lysates were collected by scraping, transferred to 1.5 mL microcentrifuge tubes, and incubated on ice for 15 min. […] Relative protein concentrations were determined by bicinchoninic acid assay (Pierce), and samples were normalized to the lowest protein concentration. […]
For tau immunoprecipitations, an aliquot (30 µL) of Protein A/G PLUS-agarose (Santa Cruz Biotech) per condition was collected and washed twice in ice cold IP lysis buffer. […] Inputs and eluates were subsequently analyzed by SDS-PAGE followed by western blotting. Quantification was performed by densitometry analysis in ImageJ (NIH).

Test [2] concerns HEK293 FlpIn T-Rex cells. In words: Tau protein abundance by western blot (tau:tubulin). In kind it is cell-based. To be noted: Fig 3G; for normalized tau:tubulin ratios: normalized to full-length tau. On the procedure:
as §1
Construction of the stable dox-inducible HEK 293 eGFP-tau reporter cell lines was performed as described. In brief, parent HEK 293 Flp-In T-REx cells were harvested by trypsinization, resuspended in electroporation buffer containing 5 µg eGFP-tau plasmid DNA and 45 µg pOG44 plasmid DNA. Cells were electroporated using program Q-001 on a Lonza 4D-Nucleofector. Electroporated cells were immediately diluted in 10% FBS-DMEM and cultured for 48 h to recover. Following recovery, cells were selected with 100 µg/mL hygromycin until single colonies arose. Colonies were subsequently picked and screened for dox-inducible expression of eGFP-tau by fluorescence microscopy (Echo Revolve) and western blotting.
Prepared samples were separated on precast 4–20% SDS-PAGE gradient gels (Bio-Rad) for 35 min at 200 V. Proteins were transferred to nitrocellulose membranes using a Trans-Blot Turbo Transfer System (Bio-Rad). Membranes were blocked in Odyssey TBS Blocking Buffer (Licor) for 1 h at room temperature and then incubated in primary antibody in 1X Tris-Buffer saline containing 0.05% Tween-20 (1X TBS-T), plus 5% non-fat dry milk powder, and 0.02% NaN3 overnight at 4 °C with rotation. The following day, membranes were washed 3 times in 1X TBS-T and then incubated in secondary antibody diluted 1:10,000 in Odyssey TBS Antibody Diluent (Licor) for 1 h at room temperature. Following incubation with secondary antibody, membranes were washed 3 times in 1X TBS-T and imaged on an Odyssey Fc Imaging System (Licor). Quantification was performed by densitometry analysis in ImageJ (NIH). Raw images, along with select quantifications, can be found in Fig. S6. […]
Background: Immunoblotting shows a protein as a band on a membrane.

Test [3] concerns the target CHIP. In words: CHIP-tau binding ELISA (tau proteoforms on immobilized CHIP). To be noted: Fig 1D. Background: In an ELISA, binding on a coated surface is turned into a signal by an enzyme label.

Read-outs that look alike come from different tables or passages of the source.

In general, Kd refers to the constant that tells how readily two partners part at equilibrium. In turn, “tau: full length (FL) 0N4R splice isoform of tau, unmodified; recombinant or expressed in cells” came in with a CHIP/tau in test [1] (IntDen quantification, with induction) of 1.597. Also, the “Relative Binding” value in test [1] (IntDen quantification, with induction, relative to tauC3) was 1.645. In addition, the “CHIP/Tau normalized to tauC3” value in test [1] (second quantification) came out at 0.04136. For the same substance, the CHIP/Tau in test [1] (second quantification, CHIP over total tau (D-8)) came out at 0.03219. Moreover, the “normalized tau:tubulin ratios” value turned out to be 107.457 in test [2] (replicate 1), 93.4819 in test [2] (replicate 2) and 99.0612 in test [2] (replicate 3). Further, the “raw tau:tubulin ratios” value in test [2] (replicate 1) came out at 1.039; in test [2] (replicate 2) it was 0.9043; in test [2] (replicate 3), 0.9582. Also, the Kd in test [3] (replicate 1) turned out to be 5.98 µM; in test [3] (replicate 2), 6.43 µM; in test [3] (replicate 3), 6.35 µM; in test [3] (read-out: transformed Kd, replicate 1), 5.98 µM; in test [3] (read-out: transformed Kd, replicate 2), 6.43 µM; in test [3] (read-out: transformed Kd, replicate 3), 6.35 µM.
